O=C(O)CCCCCCCCCCC(=O)O
solubility (mole fraction)
Details | 288.15 K | 293.15 K | 298.15 K | 303.15 K | 308.15 K | 313.15 K | 318.15 K | 323.15 K
in 2-butanone | 0.0025 | 0.0036 | 0.005 | 0.007 | 0.0097 | 0.0133 | 0.0189 | 0.0255
in 3-pentanone | 0.0013 | 0.0018 | 0.0026 | 0.0036 | 0.005 | 0.0068 | 0.0094 | 0.0128
in acetic acid | 0.0032 | 0.0045 | 0.006 | 0.0079 | 0.0112 | 0.0155 | 0.02 | 0.0268
in acetone | 0.003 | 0.0041 | 0.0058 | 0.0077 | 0.0107 | 0.0145 | 0.0193 | 0.0257
in ethanol | 0.0083 | 0.0107 | 0.0145 | 0.0194 | 0.025 | 0.0317 | 0.0408 | 0.0516
in ethyl acetate | 0.0012 | 0.0017 | 0.0024 | 0.0034 | 0.0048 | 0.0066 | 0.009 | 0.0122

Reference: BigSolDB 2.1
